Consider 27 compounds from patent publication US10323022B2, “Pyrrolidinyl urea, pyrrolidinyl thiourea and pyrrolidinyl guanidine compounds as TrkA kinase inhibitors” (Array BioPharma Inc., priority 2011, dated 2019).

Molecules are shown by their SMILES.

Chain of TrkA (P04629 33-796): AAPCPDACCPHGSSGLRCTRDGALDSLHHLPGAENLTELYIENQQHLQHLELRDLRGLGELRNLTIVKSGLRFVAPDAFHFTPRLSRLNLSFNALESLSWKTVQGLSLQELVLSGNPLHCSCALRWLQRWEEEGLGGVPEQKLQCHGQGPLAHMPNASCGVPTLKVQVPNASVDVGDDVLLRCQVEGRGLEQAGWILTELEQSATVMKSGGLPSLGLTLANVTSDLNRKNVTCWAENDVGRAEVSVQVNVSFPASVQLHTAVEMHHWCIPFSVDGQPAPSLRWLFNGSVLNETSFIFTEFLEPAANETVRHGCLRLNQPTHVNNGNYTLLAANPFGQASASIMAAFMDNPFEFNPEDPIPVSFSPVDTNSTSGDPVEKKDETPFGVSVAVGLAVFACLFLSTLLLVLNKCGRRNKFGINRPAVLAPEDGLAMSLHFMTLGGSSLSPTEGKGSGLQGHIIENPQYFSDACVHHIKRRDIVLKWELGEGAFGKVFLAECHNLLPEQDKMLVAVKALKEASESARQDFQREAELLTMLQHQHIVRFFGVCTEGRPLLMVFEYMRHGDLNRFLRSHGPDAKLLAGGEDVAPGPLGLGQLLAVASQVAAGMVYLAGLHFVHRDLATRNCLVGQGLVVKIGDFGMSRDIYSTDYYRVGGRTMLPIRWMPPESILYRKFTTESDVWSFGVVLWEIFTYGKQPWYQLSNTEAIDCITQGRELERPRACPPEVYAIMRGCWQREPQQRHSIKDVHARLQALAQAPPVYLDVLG

The target of the test is TrkA (Homo sapiens (Human), UniProt P04629). Kind of test: TrkA Omnia Assay. The format is biochemical. Particulars: averaged IC50; 20 nM enzyme, 500 μM ATP, 10 μM peptide substrate. In a few lines:
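Continuous fluorescent kinase read-out (ex 360 nm, em 485 nm) over 70 min, with initial rates fitted to 4- or 5-parameter logistic curves for IC50. Final conditions: 500 μM ATP, 10 μM Omnia Tyr Peptide #4, 20 nM TrkA, MOPS pH 7.5 buffer with MgCl2 and Triton X-100; enzyme and compound preincubated 10 min at ambient temperature.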
`COCCN1C[C@@H](NC(=O)Nc2c(C)c(C(=O)NC(C)C)nn2-c2ccccc2)[C@H](c2ccc(F)c(F)c2)C1` [Example 462, 5-(3-((3S,4R)-4-(3,4-difluorophenyl)-1-(2-methoxyethyl)pyrrolidin-3-yl)ureido)-N-isopropyl-4-methyl-1-phenyl-1H-pyrazole-3-carboxamide] displayed an IC50 of less than 100 nM.
Next, `COCCN1C[C@@H](NC(=O)Nc2c(C)c(C(N)=O)nn2-c2ccccc2)[C@H](c2ccc(F)c(F)c2)C1` [Example 463, 5-(3-((3S,4R)-4-(3,4-difluorophenyl)-1-(2-methoxyethyl)pyrrolidin-3-yl)ureido)-4-methyl-1-phenyl-1H-pyrazole-3-carboxamide]: less than 100 nM; `CCOc1nn(-c2ccccc2)c(NC(=O)N[C@@H]2CN(CCOC)C[C@H]2c2cc(F)cc(F)c2)c1CO` [Example 464, 1-((3S,4R)-4-(3,5-difluorophenyl)-1-(2-methoxyethyl)pyrrolidin-3-yl)-3-(3-ethoxy-4-(hydroxymethyl)-1-phenyl-1H-pyrazol-5-yl)urea]: less than 100 nM.
`COCCN1C[C@@H](NC(=O)Nc2c(C)c(-c3cnn(C)c3)nn2-c2ccccc2)[C@H](c2ccc(F)c(Cl)c2)C1` [Example 465, 1-((3S,4R)-4-(3-chloro-4-fluorophenyl)-1-(2-methoxyethyl)pyrrolidin-3-yl)-3-(1′,4-dimethyl-1-phenyl-1H, 1′H-3,4′-bipyrazol-5-yl)urea]: the IC50 was less than 100 nM.
Regarding `COCCN1C[C@@H](NC(=O)Nc2c(C)c(-c3cnn(C)c3)nn2-c2ccccc2)[C@H](c2ccc(Cl)c(F)c2)C1` [Example 466, 1-((3S,4R)-4-(4-chloro-3-fluorophenyl)-1-(2-methoxyethyl)pyrrolidin-3-yl)-3-(1′,4-dimethyl-1-phenyl-1H, 1′H-3,4′-bipyrazol-5-yl)urea], the IC50 was less than 100 nM.
`COCCN1C[C@@H](NC(=O)Nc2c(C)c(-c3cnn(C)c3)nn2-c2ccccc2)[C@H](c2cc(F)cc(Cl)c2)C1` [Example 467, 1-((3S,4R)-4-(3-chloro-5-fluorophenyl)-1-(2-methoxyethyl)pyrrolidin-3-yl)-3-(1′,4-dimethyl-1-phenyl-1H, 1′H-3,4′-bipyrazol-5-yl)urea]: the IC50 is less than 100 nM.
Next, `CCOc1nn(-c2ccccc2)c(NC(=O)N[C@@H]2CN(CC(=O)OC)C[C@H]2c2ccc(F)c(F)c2)c1C` [Example 468, methyl 2-((3R,4S)-3-(3,4-difluorophenyl)-4-(3-(3-ethoxy-4-methyl-1-phenyl-1H-pyrazol-5-yl)ureido)pyrrolidin-1-yl)acetate]: less than 100 nM.
Next, `CCOc1nn(-c2ccccc2)c(NC(=O)N[C@@H]2CN(CC(O)C(F)(F)F)C[C@H]2c2ccc(F)c(F)c2)c1C` (stereo partly drawn) [Example 469, 1-((3S,4R)-4-(3,4-difluorophenyl)-1-(3,3,3-trifluoro-2-hydroxypropyl)pyrrolidin-3-yl)-3-(3-ethoxy-4-methyl-1-phenyl-1H-pyrazol-5-yl)urea]: 1000 to 10000 nM; `CCOc1nn(-c2ccccc2)c(NC(=O)N[C@@H]2CN(CC(C)O)C[C@H]2c2ccc(F)c(F)c2)c1C` (stereo partly drawn) [Example 470, 1-((3S,4R)-4-(3,4-difluorophenyvl)-1-(2-hydroxypropyl)pyrrolidin-3-yl)-3-(3-ethoxy-4-methyl-1-phenyl-1H-pyrazol-5-yl)urea]: 100 to 1000 nM.
Next, `CCOc1nn(-c2ccccc2)c(NC(=O)N[C@@H]2CN(CCC#N)C[C@H]2c2ccc(F)c(F)c2)c1C` [Example 471, 1-((3S,4R)-1-(2-cyanoethyl)-4-(3,4-difluorophenyl)pyrrolidin-3-yl)-3-(3-ethoxy-4-methyl-1-phenyl-1H-pyrazol-5-yl)urea]: 100 to 1000 nM.
Turning to `CCOc1nn(-c2ccccc2)c(NC(=O)N[C@@H]2CN(CC(=O)NC)C[C@H]2c2ccc(F)c(F)c2)c1C` [Example 472, 2-((3R,4S)-3-(3,4-difluorophenyl)-4-(3-(3-ethoxy-4-methyl-1-phenyl-1H-pyrazol-5-yl)ureido)pyrrolidin-1-yl)-N-methylacetamide], the IC50 lay in the range of 100 to 1000 nM.
Compound `COCCN1C[C@@H](NC(=O)Nc2c(C)c(C)nn2C2CCCCC2)[C@H](c2ccc(F)c(F)c2)C1` [Example 473, 1-(1-cyclohexyl-3,4-dimethyl-1H-pyrazol-5-yl)-3-((3 S,4R)-4-(3,4-difluorophenyl)-1-(2-methoxyethyl)pyrrolidin-3-yl)urea] came in with an IC50 of less than 100 nM.
Next, `COCCN1C[C@@H](NC(=O)Nc2c(C)c(OCC(CO)CO)nn2-c2ccccc2)[C@H](c2ccc(F)c(F)c2)C1` [Example 474, 1-((3S,4R)-4-(3,4-difluorophenyl)-1-(2-methoxyethyl)pyrrolidin-3-yl)-3-(3-(3-hydroxy-2-(hydroxymethyl)propoxy)-4-methyl-1-phenyl-1H-pyrazol-5-yl)urea]: less than 100 nM.
In the case of `COCCN1C[C@@H](NC(=O)Nc2c(C)c(OCC(F)(F)F)nn2-c2ccccc2)[C@H](c2ccc(F)c(F)c2)C1` [Example 475, 1-((3S,4R)-4-(3,4-difluorophenyl)-1-(2-methoxyethyl)pyrrolidin-3-yl)-3-(4-methyl-1-phenyl-3-(2,2,2-trifluoroethoxy)-1H-pyrazol-5-yl)urea] it was less than 100 nM.
Next, `COCCN1C[C@@H](NC(=O)Nc2c(C)c(OCC(F)(F)F)nn2-c2ccccc2)[C@H](c2ccc(F)cc2)C1` [Example 476, 1-((3S,4R)-4-(4-fluorophenyl)-1-(2-methoxyethyl)pyrrolidin-3-yl)-3-(4-methyl-1-phenyl-3-(2,2,2-trifluoroethoxy)-1H-pyrazol-5-yl)urea]: less than 100 nM.
For the compound `COCCN1C[C@@H](NC(=O)Nc2c(C)c(OCC(F)(F)F)nn2-c2ccccc2)[C@H](c2cc(F)cc(F)c2)C1` [Example 477, 1-((3S,4R)-4-(3,5-difluorophenyvl)-1-(2-methoxyethyl)pyrrolidin-3-yl)-3-(4-methyl-1-phenyl-3-(2,2,2-trifluoroethoxy)-1H-pyrazol-5-yl)urea], the IC50 is less than 100 nM.
In the case of `COCCN1C[C@@H](NC(=O)Nc2c(C)c(OCC(F)F)nn2-c2ccccc2)[C@H](c2ccc(F)c(F)c2)C1` [Example 478, 1-(3-(2,2-difluoroethoxy)-4-methyl-1-phenyl-1H-pyrazol-5-yl)-3-((3 S,4R)-4-(3,4-difluorophenyl)-1-(2-methoxyethyl)pyrrolidin-3-yl)urea] it was less than 100 nM.
In the case of `COCCN1C[C@@H](NC(=O)Nc2c(Cl)c(OCC(F)(F)F)nn2-c2ccccc2)[C@H](c2ccc(F)c(F)c2)C1` [Example 479, 1-(4-chloro-1-phenyl-3-(2,2,2-trifluoroethoxy)-1H-pyrazol-5-yl)-3-((3 S,4R)-4-(3,4-difluorophenyl)-1-(2-methoxyethyl)pyrrolidin-3-yl)urea] it was less than 100 nM; in that of `COCCN1C[C@@H](NC(=O)Nc2c(Cl)c(-c3ccccn3)nn2-c2ccccc2)[C@H](c2ccc(F)c(F)c2)C1` [Example 480, 1-(4-chloro-1-phenyl-3-(pyridin-2-yl)-1H-pyrazol-5-yl)-3-((3 S,4R)-4-(3,4-difluorophenyl)-1-(2-methoxyethyl)pyrrolidin-3-yl)urea], less than 100 nM.
`COCCN1C[C@@H](NC(=O)Nc2c(Cl)c(-c3ccncc3)nn2-c2ccccc2)[C@H](c2ccc(F)c(F)c2)C1` [Example 481, 1-(4-chloro-1-phenyl-3-(pyridin-4-yl)-1H-pyrazol-5-yl)-3-((3 S,4R)-4-(3,4-difluorophenyl)-1-(2-methoxyethyl)pyrrolidin-3-yl)urea]: the IC50 was less than 100 nM.
As to `COCCN1C[C@@H](NC(=O)Nc2c(Cl)c(-c3cccnc3)nn2-c2ccccc2)[C@H](c2ccc(F)c(F)c2)C1` [Example 482, 1-(4-chloro-1-phenyl-3-(pyridin-3-yl)-1H-pyrazol-5-yl)-3-((3S,4R)-4-(3,4-difluorophenyl)-1-(2-methoxyethyl)pyrrolidin-3-yl)urea], the IC50 was less than 100 nM.
Next, `COCCN1C[C@@H](NC(=O)Nc2c(Br)c(-c3cccnc3)nn2-c2ccccc2)[C@H](c2ccc(F)c(F)c2)C1` [Example 483, 1-(4-bromo-1-phenyl-3-(pyridin-3-yl)-1H-pyrazol-5-yl)-3-((3 S,4R)-4-(3,4-difluorophenyl)-1-(2-methoxyethyl)pyrrolidin-3-yl)urea]: less than 100 nM.
For `COCCN1C[C@@H](NC(=O)Nc2c(Br)c(-c3ccccn3)nn2-c2ccccc2)[C@H](c2ccc(F)c(F)c2)C1` [Example 484, 1-(4-bromo-1-phenyl-3-(pyridin-2-yl)-1H-pyrazol-5-yl)-3-((3S,4R)-4-(3,4-difluorophenyl)-1-(2-methoxyethyl)pyrrolidin-3-yl)urea], the 50% inhibitory concentration (IC50) was less than 100 nM.
Next, `COCCN1C[C@@H](NC(=O)Nc2c(Cl)c(-c3ccccc3)nn2-c2cccnc2)[C@H](c2ccc(F)c(F)c2)C1` [Example 485, 1-(4-chloro-3-phenyl-1-(pyridin-3-yl)-1H-pyrazol-5-yl)-3-((3S,4R)-4-(3,4-difluorophenyl)-1-(2-methoxyethyl)pyrrolidin-3-yl)urea]: 100 to 1000 nM; `COCCN1C[C@@H](NC(=O)Nc2c(C)c(-c3cccnc3)nn2-c2ccccc2)[C@H](c2ccc(F)c(F)c2)C1` [Example 486, 1-((3S,4R)-4-(3,4-difluorophenyl)-1-(2-methoxyethyl)pyrrolidin-3-yl)-3-(4-methyl-1-phenyl-3-(pyridin-3-yl)-1H-pyrazol-5-yl)urea]: less than 100 nM.
As for `COCCN1C[C@@H](NC(=O)Nc2c(C)c(-c3ccncc3)nn2-c2ccccc2)[C@H](c2ccc(F)c(F)c2)C1` [Example 487, 1-((3S,4R)-4-(3,4-difluorophenyl)-1-(2-methoxyethyl)pyrrolidin-3-yl)-3-(4-methyl-1-phenyl-3-(pyridin-4-yl)-1H-pyrazol-5-yl)urea], the IC50 is less than 100 nM.
Next, `COCCN1C[C@@H](NC(=O)Nc2c(C)c(-c3ccccn3)nn2-c2ccccc2)[C@H](c2ccc(F)c(F)c2)C1` [Example 488, 1-((3S,4R)-4-(3,4-difluorophenyl)-1-(2-methoxyethyl)pyrrolidin-3-yl)-3-(4-methyl-1-phenyl-3-(pyridin-2-yl)-1H-pyrazol-5-yl)urea]: less than 100 nM.

In general, IC50 refers to the midpoint of a concentration-inhibition curve.
